Measured values from patent publication US9289411B2, “Anti-HCV agent” (NATIONAL UNIVERSITY CORPORATION OKAYAMA UNIVERSITY, priority 2011, dated 2016).

Columns and labels:
[1] = tested on: HCV core protein in HCV-O/RLGE cells; assay: Western blot analysis of HCV core protein in HCV-O/RLGE cells; type: cell-based; settings: 72 hours, concentration region in which β-actin did not reduce
Experimental: HCV-O/RLGE cells (Ikeda et al., Liver Int 31:871-880, 2011) were plated onto a 6-well plate (5×10^4 cells in 3 mL of medium for HuH-7 cell line per well) and cultured. […] 72 hours after the culture, the cells were lysed with 100 μL of 2×SDS buffer to prepare a sample for Western blot analysis. The Western blot analysis using an antibody against an HCV core protein (CP11; Institute of Immunology, Tokyo) was performed according to a conventional method. β-Actin was detected with an anti-β-actin antibody (AC-15; Sigma-Aldrich) in a sample diluted 10-fold with 2×SDS buffer.

[2] = tested on: HCV core protein in ORL8 cells; assay: Western blot analysis of HCV core protein expression in ORL8 cells; type: cell-based, HCV genotype 1b; settings: 72 hours, 0.078-5 μM
Experimental: (§1) N-89 and N-251 were diluted with DMSO. Sampling was performed with 100 μL of 2×SDS buffer 72 hours after the culture. 10 μL of a sample were applied to SDS-PAGE electrophoresis and subjected to Western blot analysis using an anti-HCV core antibody and an anti-β-actin antibody according to a conventional method. It should be noted that for the detection of β-actin, a sample diluted 10-fold with 2×SDS buffer in advance was used.

[3] = tested on: HCV-RNA replication in ORL11 cells (HCV-O strain, Li23-derived); assay: microbe, parasite or virus in culture; type: cell-based, HCV genotype 1b; settings: for EC50: Hepatitis C virus, 72 hours, renilla luciferase activity
Experimental: N-89 was added so as to achieve concentrations of 500 nM, a 2-fold dilution series from 500 nM (250, 125, 63, 31, 16, and 8 nM), and 0. The luciferase activities were measured 72 hours after the culture.
N-251 was added so as to achieve concentrations of 1 μM, a 2-fold dilution series from 1 μM (500, 250, 125, 63, 31, and 16 nM), and 0. The luciferase activities were measured 72 hours after the culture.

[4] = tested on: HCV-RNA replication in ORL8 cells (HCV-O strain, Li23-derived); assay: microbe, parasite or virus in culture; settings: for EC50: Hepatitis C virus, ORL8, 72 h; for SI (CC50/EC50) / suppression of the level of HCV-RNA replication: ORL8 cells; for suppression of the level of HCV-RNA replication: 1 μM
Source text: Assay systems using OR6 cells (HCV-O strain), 1B-4R cells (HCV-1B-4 strain), and AH1R cells (HCV-AH1R strain) as HuH-7 cell-derived full-length HCV-RNA-replicating cells, and ORL8 cells (HCV-O strain), ORL11 cells (HCV-O strain), 1B-4RL cells (HCV-1B-4 strain), and KAH5RL cells (HCV-KAH5 strain) as Li23 cell-derived full-length HCV-RNA-replicating cells were used for the quantitative analysis of anti-HCV activity and evaluation of a cytotoxic effect in the present invention. The three cell lines, i.e., the 1B-4R cells, the 1B-4RL cells, and the KAH5RL cells have been disclosed in WO 2010/026965 A1. The AH1R cells may be produced with reference to Mori K et al., BBRC, 371:104-109, 2008 and WO 2010/026965 A1. In addition, all the HCV strains belong to genotype 1b.
As necessary, an increase or decrease in expression level of an HCV protein (core protein) was examined by a Western blot method.
In the measurement of the renilla luciferase activity and the measurement by the WST-1 method, experiments were performed in three wells independent of each other, and their means and standard deviation were calculated.
The anti-HCV activities of N-89 and N-251 were examined using ORL8 cells and the EC50 values were calculated. An experimental scale and schedule are the same as those in Example 1.
N-89 and N-251 were added so as to achieve concentrations of 5 μM, a 2-fold dilution series from 5 μM (2.5, 1.3, 0.63, 0.31, 0.16, and 0.08 μM), and 0. The luciferase activities were measured 72 hours after the culture.
The anti-HCV activity of artemisinin was examined using OR6 cells and ORL8 cells and the EC50 values were calculated. An experimental scale and schedule are the same as those in Example 1.
Artemisinin was added so as to achieve concentrations of 100 μM, a 2-fold dilution series from 100 μM (50, 25, 13, 6.3, 3.1, and 1.6 μM), and 0. The luciferase activities were measured 72 hours after the culture.

renilla luciferase [5] = assay: Influence on renilla luciferase activity in lysate of ORL8 cells; type: biochemical; settings: ORL8 cell lysate, concentrations of up to 20 μM
Experimental: In the ORL8 cells, the anti-HCV activity is evaluated by measuring the activity of renilla luciferase as a product of an exogenous gene introduced so as to be linked to HCV RNA.
(§2) Thus, N-89 or N-251 was added (5 μL) to a lysate (10 μL) of the ORL8 cells (1×10^5 cells, medium for Li23 cell line) so as to achieve final concentrations of 0, 5, 10, and 20 μM, and 50 μL of a substrate were further added thereto. Then, the luciferase activity was measured.
An actual luciferase activity value (RL activity value) at 100% on the ordinate axis was 2.2×10^5 in the case of N-89 and 2.8×10^5 in the case of N-251.

[6] = tested on: HCV-RNA replication in KAH5RL cells (HCV-KAH5 strain, Li23-derived); assay: microbe, parasite or virus in culture; type: cell-based, HCV genotype 1b; settings: for EC50: Hepatitis C virus, 72 hours, renilla luciferase activity
Experimental: N-89 was added so as to achieve concentrations of 10 μM, a 2-fold dilution series from 10 μM (5, 2.5, 1.3, 0.63, 0.31, and 0.16 μM), and 0. The luciferase activities were measured 72 hours after the culture.
N-251 was added so as to achieve concentrations of 5 μM, a 2-fold dilution series from 5 μM (2.5, 1.3, 0.63, 0.31, 0.16, and 0.08 μM), and 0. The luciferase activities were measured 72 hours after the culture.

[7] = tested on: HCV core protein in OR6 cells; assay: Western blot analysis of HCV core protein expression in OR6 cells; type: cell-based, HCV genotype 1b; settings: 72 hours, N-89 0.31-20 μM, N-251 0.16-10 μM
Experimental: as §1, with “After 72 hours, sampling” for “Sampling”, “buffer.” for “buffer 72 hours after the culture.”, “For” for “It should be noted that for”, “used because the expression amount of β-actin was high.” for “used.”

renilla luciferase [8] = assay: Influence on renilla luciferase activity in lysate of OR6 cells; type: biochemical; settings: OR6 cell lysate, concentrations of up to 20 μM
Experimental: as §2
Also in OR6 cells (medium for HuH-7 cell line), the renilla luciferase activity was measured by the same technique as in Example 6.
An actual luciferase activity value (RL activity value) at 100% on the ordinate axis was 1.1×10^6 in both of N-89 and N-251.

[9] = tested on: HCV-RNA replication in 1B-4RL cells (HCV-1B-4 strain, Li23-derived); assay: microbe, parasite or virus in culture; type: cell-based, HCV genotype 1b; settings: for EC50: Hepatitis C virus, 72 hours, renilla luciferase activity
Experimental: For N-251, the results at concentrations of up to 1.3 μM are shown.

Row | Compound | amount of HCV core protein (Western blot) [1] | level of the HCV core protein (Western blot) [2] | SI (CC50/EC50) [3] | EC50 [3] [nM] | EC50 [4] [nM] | SI (CC50/EC50) [4] | suppression of the level of HCV-RNA replication [4] [%] | inhibition on the renilla luciferase activity (renilla luciferase [5]) | SI (CC50/EC50) [6] | EC50 [6] [nM] | level of the HCV core protein (Western blot) [7] | inhibition on the renilla luciferase activity (renilla luciferase [8]) | SI (CC50/EC50) [9] | EC50 [9] [nM]
1 | C1CCCCCC2(CCCCC1)OOCCCOO2 [N-89, 1,2,6,7-tetraoxaspiro[7,11]nonadecane] | clearly reduced | reduced depending on the concentrations | 12 | 45 | 89 | 26 | 99 | did not show any inhibition | 13 | 190 | reduced depending on the concentrations | did not show any inhibition | 20 | 120
2 | OCCCCCCC1COOC2(CCCCCCCCCCC2)OOC1 [N-251, 6-(1,2,6,7-tetraoxaspiro[7,11]nonadec-4-yl)] | clearly reduced | reduced depending on the concentrations | 19 | 59 | 100 | 13 | 99 | did not show any inhibition | 11 | 290 | reduced depending on the concentrations | did not show any inhibition | 8.3 | 230
